# Experimental data from ChEMBL document CHEMBL2203185, “Development of sub-nanomolar dipeptidic ligands of neuropeptide FF receptors” (Bioorg Med Chem Lett, 2012).
# Tests used:
# Assay type in all cases: cell-based
# [1] = target: T1, Neuropeptide FF receptor 2 (Homo sapiens, UniProt Q9Y5X5); test: Displacement of [3H]FFRF-NH2 from human flag-tagged NPFF2 receptor expressed in CHO cells at 5 uM by scintillation counting
# [2] = target: T2, Neuropeptide FF receptor 1 (Homo sapiens, UniProt Q9GZQ6); test: Displacement of [3H]FFRF-NH2 from human flag-tagged NPFF1 receptor expressed in CHO cells at 5 uM by scintillation counting
# T2 sequence (Q9GZQ6 whole entry): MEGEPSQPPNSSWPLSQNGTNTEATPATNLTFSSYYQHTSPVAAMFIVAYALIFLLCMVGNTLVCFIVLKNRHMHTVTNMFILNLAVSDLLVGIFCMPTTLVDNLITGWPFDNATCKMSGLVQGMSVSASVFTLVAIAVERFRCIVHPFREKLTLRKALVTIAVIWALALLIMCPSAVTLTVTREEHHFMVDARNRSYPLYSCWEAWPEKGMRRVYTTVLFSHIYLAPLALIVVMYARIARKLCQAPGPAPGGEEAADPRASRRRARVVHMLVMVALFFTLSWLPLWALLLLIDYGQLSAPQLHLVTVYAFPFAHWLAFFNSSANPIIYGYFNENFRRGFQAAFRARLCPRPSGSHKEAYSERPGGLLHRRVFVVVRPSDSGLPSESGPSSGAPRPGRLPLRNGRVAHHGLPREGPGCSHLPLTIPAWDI
# [3] = target: T1, Neuropeptide FF receptor 2; test: Displacement of [3H]FFRF-NH2 from human flag-tagged NPFF2 receptor expressed in CHO cells at 500 nM by scintillation counting
# [4] = target: T2, Neuropeptide FF receptor 1; test: Displacement of [3H]FFRF-NH2 from human flag-tagged NPFF1 receptor expressed in CHO cells at 500 nM by scintillation counting
# T1 sequence (Q9Y5X5 whole entry): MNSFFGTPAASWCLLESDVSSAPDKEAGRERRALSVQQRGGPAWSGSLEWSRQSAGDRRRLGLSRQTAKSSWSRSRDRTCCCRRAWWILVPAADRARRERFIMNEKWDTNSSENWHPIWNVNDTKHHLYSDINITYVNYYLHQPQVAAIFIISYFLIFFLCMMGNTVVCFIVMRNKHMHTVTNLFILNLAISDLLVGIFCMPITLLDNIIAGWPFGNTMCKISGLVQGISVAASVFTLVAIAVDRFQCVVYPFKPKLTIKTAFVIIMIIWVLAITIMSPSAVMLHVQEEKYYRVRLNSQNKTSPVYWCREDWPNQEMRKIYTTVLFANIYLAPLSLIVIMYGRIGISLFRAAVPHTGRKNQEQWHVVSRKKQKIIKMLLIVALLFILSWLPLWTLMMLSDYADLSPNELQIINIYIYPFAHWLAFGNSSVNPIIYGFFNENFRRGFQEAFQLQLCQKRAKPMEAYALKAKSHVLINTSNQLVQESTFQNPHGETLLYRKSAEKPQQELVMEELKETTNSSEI
inhibition [1] [%],inhibition [2] [%],inhibition [3] [%],inhibition [4] [%],Structure (SMILES)
59,100,31,100,N=C(N)NCCC[C@H](NC(=O)CCN1c2ccccc2Sc2ccccc21)C(=O)N[C@@H](Cc1ccccc1)C(N)=O
57,100,11,57,N=C(N)NCCC[C@@H](NC(=O)C12CC3CC(CC(C3)C1)C2)C(=O)N[C@H](Cc1ccccc1)C(N)=O
20,84,0,56,N=C(N)NCCC[C@H](NC(=O)c1cccc(Cl)c1)C(=O)N[C@@H](Cc1ccccc1)C(N)=O
34,77,4,19,COc1ccc(/C=C/C(=O)N[C@@H](CCCNC(=N)N)C(=O)N[C@@H](Cc2ccccc2)C(N)=O)cc1OC
27,65,0,13,COc1ccc(C(=O)N[C@@H](CCCNC(=N)N)C(=O)N[C@@H](Cc2ccccc2)C(N)=O)cc1OC
40,87,30,68,N=C(N)NCCC[C@@H](NC(=O)Cc1ccccc1)C(=O)N[C@@H](Cc1ccccc1)C(N)=O
31,94,14,43,CC(C)(C)c1ccc(C(=O)N[C@@H](CCCNC(=N)N)C(=O)N[C@@H](Cc2ccccc2)C(N)=O)cc1
47,80,15,21,N=C(N)NCCC[C@H](NC(=O)/C=C/c1cccc(O)c1)C(=O)N[C@@H](Cc1ccccc1)C(N)=O
54,77,14,19,COc1ccc(C(=O)N[C@@H](CCCNC(=N)N)C(=O)N[C@@H](Cc2ccccc2)C(N)=O)cn1
46,58,24,3,N=C(N)NCCC[C@H](NC(=O)/C=C/c1ccccc1)C(=O)N[C@@H](Cc1ccccc1)C(N)=O
47,79,24,22,N=C(N)NCCC[C@H](NC(=O)c1cnc2ccccc2c1)C(=O)N[C@@H](Cc1ccccc1)C(N)=O
48,91,38,35,CC(C)(C)C(=O)N[C@@H](CCCNC(=N)N)C(=O)N[C@@H](Cc1ccccc1)C(N)=O
33,100,13,44,CCCCCCCCCCC(=O)N[C@@H](CCCNC(=N)N)C(=O)N[C@@H](Cc1ccccc1)C(N)=O
63,100,9,62,N=C(N)NCCC[C@H](NC(=O)Cc1ccc(Cl)cc1)C(=O)N[C@@H](Cc1ccccc1)C(N)=O
26,76,0,32,N=C(N)NCCC[C@H](NC(=O)Cc1ccc(O)cc1)C(=O)N[C@@H](Cc1ccccc1)C(N)=O
52,82,5,26,N=C(N)NCCC[C@H](NC(=O)Cc1ccccc1)C(=O)N[C@@H](Cc1ccccc1)C(N)=O
70,92,8,85,N=C(N)NCCC[C@@H](NC(=O)c1ccccc1-c1ccccc1)C(=O)N[C@H](Cc1ccccc1)C(N)=O
28,56,0,18,N=C(N)NCCC[C@H](NC(=O)c1ccc(O)c(O)c1)C(=O)N[C@@H](Cc1ccccc1)C(N)=O
60,83,16,47,N=C(N)NCCC[C@H](NC(=O)Cc1ccccc1Cl)C(=O)N[C@@H](Cc1ccccc1)C(N)=O
